Columns and labels:
lipid-coated viruses = details: against lipid-coated viruses; cited from earlier work
[1] = tested on: transformed human keratinocytes (cell line TR 146); experiment: acute ocular tolerance on reconstituted corneas ([…] model), MTT cell viability test; type: cell-based; set-up: key to Colour of the two cultures: deep blue/purple colour when they are viable; white/yellow in colour if cell death occurs
Protocol: To start with, the product was evaluated in terms of its capacity to trigger cytopathic effects on corneas reconstituted by means of in vitro transformed keratinocytes cultures.
When they are cultured at the air-liquid interface in a specific medium, transformed human keratinocytes (cell line TR 146) form epithelial tissue without a corneal layer, similar to the human eye.
A sample of the product to be studied (30 μl) was deposited on each of the six equivalent reconstituted corneal cultures and spread out using a thin brush.
Two cultures were then incubated at 37° C., 5% CO2 for 10 minutes, 1 hour, 3 hours and 24 hours.
Negative controls substances (buffered phosphate saline solution A) and positive controls substances (0.4% SDS for “sodium dodecyl sulfate” in solution A) were prepared under sterile conditions and deposited simultaneously on the other two cultures. These cultures were incubated for one hand 24 hours. […]
Cell viability was measured qualitatively after staining. […]
After incubation for 30 minutes at room temperature, each culture's colour is observed and recorded: • negative control cultures should be a deep blue/purple colour, evidence of the viability of cells in the basal layer after 24 hours in contact, • positive control cultures should be white, evidence of cell death from the first hour of contact.

[2] = stability of BHT in the preparation on storage, liquid chromatography; type: physicochemical
Protocol: Finally, the stability of BHT in a preparation according to the invention was tested: • a container with 40 kg of preparation, covered with a simple lid without any special packaging such as the addition of an inert gas (e.g. nitrogen), was placed in storage for three yeas.

| SMILES | antiviral properties (lipid-coated viruses) | Colour of the two cultures ([1]; 1 hour contact, MTT) | Toxicity ([1]; interpretation of the colours at 10 min, 1, 3 and 24 hours) | BHT concentrations by liquid chromatography ([2]; 40 kg of preparation in a container with simple lid, no inert gas, stored three years) | stability of BHT in a preparation according to the invention ([2]; storage for three years) |
| --- | --- | --- | --- | --- | --- |
| CC(C)(C)c1cc(C(=O)O)cc(C(C)(C)C)c1O [BG4, 3,5-di-tert-butyl-4-hydroxybenzoic acid] | antiviral properties | – | – | – | – |
| CCCCCCCCCCCCOS(=O)(=O)[O-].[Na+] [Positive control, sodium dodecyl sulfate] | – | white | VI (very irritant (VI): white at 10 minutes, 1 hour, 3 hours and 24 hours) | – | – |
| CC(C)(C)c1cc(C(=O)OCCOCCOCCOCCOCCOCCOCCOCCO)cc(C(C)(C)C)c1O [AVF1, octaoxyethyleneglycol 3,5-di-tert-butyl-4-hydroxybenzoate] | antiviral properties | – | – | – | – |
| Cc1cc(C(C)(C)C)c(O)c(C(C)(C)C)c1 [BHT, 3,5-di-tert-butyl-4-hydroxytoluene] | antiviral properties | – | – | remained the same | excellent |

Reference: patent US20050175644A1, “Preparation for oxidation-sensitive compounds and method for making same” (priority 2002, published 2005)
